According to patent US10487068B2, “Pyridazine derivatives as RORc modulators” (Genentech, Inc., priority 2015, dated 2019):

These compounds were tested against T1, RORc ligand binding domain (Homo sapiens, UniProt P51449) (assay: In Vitro RORc Ligand Binding Assay). Details: RORc IC50, radioligand 25-[3H]hydroxycholesterol 6 nM; 0.6 ug/mL RORc receptor; 3 h at 25° C.
T1 sequence (P51449 269-508 limits assumed): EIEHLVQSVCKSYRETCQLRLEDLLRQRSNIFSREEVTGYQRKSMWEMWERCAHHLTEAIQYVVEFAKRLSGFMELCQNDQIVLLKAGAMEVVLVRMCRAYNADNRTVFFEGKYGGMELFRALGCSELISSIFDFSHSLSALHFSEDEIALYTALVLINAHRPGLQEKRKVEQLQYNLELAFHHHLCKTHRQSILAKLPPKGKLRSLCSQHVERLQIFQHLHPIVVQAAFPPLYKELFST

With CC1(C)[C@H]2CC[C@]1(c1cncc(-n3ccncc3=O)n1)c1nnc(-c3c(F)cccc3F)cc12 [Example 421, 6′-((5R,8S)-3-(2,6-difluorophenyl)-9,9-dimethyl-5,6,7,8-tetrahydro-5,8-methanocinnolin-8-yl)-2H-[1,2′-bipyrazin]-2-one] as the compound, how does the IC50 read?
Its IC50 is 0.0395 µM.

How did the IC50 turn out when CC1(C)[C@H]2CC[C@]1(c1cncc(Oc3cnccn3)n1)c1nnc(-c3c(F)cccc3F)cc12 [Example 422] was run?
Its IC50 is 0.016 µM.

For C[C@H](O)Cn1ccc(-c2cncc([C@@]34CC[C@@H](c5cc(-c6c(F)cccc6F)nnc53)C4(C)C)n2)n1 [Example 423, (S)-1-(3-(6-((5R,8S)-3-(2,6-difluorophenyl)-9,9-dimethyl-5,6,7,8-tetrahydro-5,8-methanocinnolin-8-yl)pyrazin-2-yl)-1H-pyrazol-1-yl)propan-2-ol], which IC50 is on record?
The IC50 was 0.0096 µM.

For CC1(C)[C@H]2CC[C@]1(c1cncc(-c3ccn(CCC#N)n3)n1)c1nnc(-c3c(F)cccc3F)cc12 [Example 424, 3-(3-(6-((5R,8S)-3-(2,6-difluorophenyl)-9,9-dimethyl-5,6,7,8-tetrahydro-5,8-methanocinnolin-8-yl)pyrazin-2-yl)-1H-pyrazol-1-yl)propanenitrile], which IC50 is on record?
Its IC50 is 0.0109 µM.

Which IC50 does the source give for CNS(=O)(=O)c1cncc([C@@]23CC[C@@H](c4cc(-c5c(F)cccc5F)nnc42)C3(C)C)n1 [Example 425, 6-((5R,8S)-3-(2,6-difluorophenyl)-9,9-dimethyl-5,6,7,8-tetrahydro-5,8-methanocinnolin-8-yl)-N-methylpyrazine-2-sulfonamide] here?
Its IC50 is 0.0114 µM.

For CC(C)(O)c1nc(-c2cncc([C@@]34CC[C@@H](c5cc(-c6c(F)cccc6F)nnc53)C4(C)C)n2)oc1Br [Example 426, 2-(5-bromo-2-(6-((5R,8S)-3-(2,6-difluorophenyl)-9,9-dimethyl-5,6,7,8-tetrahydro-5,8-methanocinnolin-8-yl)pyrazin-2-yl)oxazol-4-yl)propan-2-ol], which IC50 is on record?
The IC50 was 0.0121 µM.

CC1(C)[C@H]2CC[C@]1(c1cncc(-c3nc([C@@](C)(O)C(F)(F)F)co3)n1)c1nnc(-c3c(F)cccc3F)cc12 [Example 427, (R)-2-(2-(6-((5R,8S)-3-(2,6-difluorophenyl)-9,9-dimethyl-5,6,7,8-tetrahydro-5,8-methanocinnolin-8-yl)pyrazin-2-yl)oxazol-4-yl)-1,1,1-trifluoropropan-2-ol] was tested. Which IC50 did it give?
The IC50 was 0.0159 µM.

For CC1(C)[C@H]2CC[C@]1(c1cncc(-c3nc([C@](C)(O)C(F)(F)F)co3)n1)c1nnc(-c3c(F)cccc3F)cc12 [Example 428, (S)-2-(2-(6-((5R,8S)-3-(2,6-difluorophenyl)-9,9-dimethyl-5,6,7,8-tetrahydro-5,8-methanocinnolin-8-yl)pyrazin-2-yl)oxazol-4-yl)-1,1,1-trifluoropropan-2-ol], which IC50 is on record?
Its IC50 is 0.0157 µM.

CC[C@](C)(O)c1coc(-c2cncc([C@@]34CC[C@@H](c5cc(-c6c(F)cccc6F)nnc53)C4(C)C)n2)n1 [Example 429, (S)-2-(2-(6-((5R,8S)-3-(2,6-difluorophenyl)-9,9-dimethyl-5,6,7,8-tetrahydro-5,8-methanocinnolin-8-yl)pyrazin-2-yl)oxazol-4-yl)butan-2-ol] was tested. Which IC50 did it give?
Its IC50 is 0.0138 µM.

With CC[C@@](C)(O)c1coc(-c2cncc([C@@]34CC[C@@H](c5cc(-c6c(F)cccc6F)nnc53)C4(C)C)n2)n1 [Example 430, (R)-2-(2-(6-((5R,8S)-3-(2,6-difluorophenyl)-9,9-dimethyl-5,6,7,8-tetrahydro-5,8-methanocinnolin-8-yl)pyrazin-2-yl)oxazol-4-yl)butan-2-ol] as the compound, how does the IC50 read?
The IC50 was 0.015 µM.

CC1(C)[C@H]2CC[C@]1(c1cncc(-c3nc(C(O)(O)C(F)(F)F)co3)n1)c1nnc(-c3c(F)cccc3F)cc12 [Example 431, 1-(2-(6-((5R,8S)-3-(2,6-difluorophenyl)-9,9-dimethyl-5,6,7,8-tetrahydro-5,8-methanocinnolin-8-yl)pyrazin-2-yl)oxazol-4-yl)-2,2,2-trifluoroethane-1,1-diol] was tested. Which IC50 did it give?
The IC50 was 0.0213 µM.
